Measurements published in patent publication US9901592B2 (priority 2008, dated 2018).
Values after ≈ are worked out from the molar mass of the structure shown. Where two headings read alike, the source gives them in different places.

What was measured:
M. pneumoniae = experiment: microbe, parasite or virus in culture; format: cell-based; settings: Mycoplasmoides pneumoniae
M. fermentans = format: cell-based; settings: Mycoplasmopsis fermentans; M. fermentans (15 isolates)
M. hominis = format: cell-based; settings: M. hominis (13 isolates)
U. urealyticum = experiment: MIC testing in 10B broth (colour change); format: cell-based; settings: U. urealyticum (10 isolates)
S. pneumoniae [1] = experiment: microbe, parasite or virus in culture; format: cell-based; settings: for MIC: Streptococcus pneumoniae
S. pneumoniae [2] = format: cell-based
S. pyogenes = format: cell-based; settings: strain 2132 Macrolide-S
S. pyogenes 3029 = experiment: Intraperitoneal (IP) mouse infection model (ED50); format: in vivo; settings: Streptococcus pyogenes, MAC-R S. pyogenes 3029
S. pneumoniae [3] = experiment: microbe, parasite or virus in culture; format: cell-based; settings: Streptococcus pneumoniae
M. catarrhalis = experiment: microbe, parasite or virus in culture; format: cell-based; settings: Moraxella catarrhalis
pneumococci = experiment: microbe, parasite or virus in culture; format: cell-based, S. pneumoniae; settings: Streptococcus pneumoniae, pneumococci, L4 mutations (27)
streptococci = experiment: organism not typed; format: cell-based

CC[C@H]1OC(=O)[C@H](C)[C@@H](O[C@H]2C[C@@](C)(OC)[C@@H](O)[C@H](C)O2)[C@H](C)[C@@H](O[C@@H]2O[C@H](C)C[C@H](N(C)C)[C@H]2O)[C@](C)(O)C[C@@H](C)CN(C)[C@H](C)[C@@H](O)[C@]1(C)O [AZI, azithromycin]
MIC50 (M. pneumoniae): 0.25 ng/mL (≈ 0.000334 µM) | MIC90 (M. pneumoniae): 0.5 ng/mL (≈ 0.000668 µM) | MIC50 (M. fermentans): 0.5 µg/mL (≈ 0.668 µM) | MIC90 (M. fermentans): 0.5 µg/mL (≈ 0.668 µM) | MIC Range (M. hominis): 0.5 to 4 µg/mL | MIC Range (U. urealyticum): 0.5 to 4 µg/mL | MIC50 (U. urealyticum; Ureaplasma urealyticum): 2 µg/mL (≈ 2.67 µM) | MIC90 (U. urealyticum; Ureaplasma urealyticum): 4 µg/mL (≈ 5.34 µM) | strains with resistant clones / strains tested (S. pneumoniae [1]; S. pneumoniae): 3/4 | MIC (S. pneumoniae [1]; read-out: Initial MIC, strain 1077 Macrolide-S, parent): 0.03 µg/mL (≈ 0.0401 µM) | MIC (S. pneumoniae [1]; read-out: Initial MIC, strain 1635 Macrolide-R [erm(A)], parent): 2 µg/mL (≈ 2.67 µM) | MIC (S. pneumoniae [1]; read-out: Initial MIC, strain 3665 Macrolide-R [mef(A)], parent): 8 µg/mL (≈ 10.7 µM) | MIC (S. pneumoniae [1]; read-out: Initial MIC, strain 7127 Macrolide-S [S20N in L4, A105V in L22], parent): 0.06 µg/mL (≈ 0.0801 µM) | MIC (S. pneumoniae [1]; read-out: MIC of parents of resistant clones, S. pneumoniae (CEM-101: 7 strains)): 0.03 to 2 µg/mL | MIC (S. pneumoniae [1]; read-out: Parental MICs, S. pneumoniae, 8 strains with varying resistotypes): 0.03 to 8 µg/mL (≈ 0.0401 to 10.7 µM) | MIC (S. pneumoniae [1]; read-out: Selected Resistance MIC, strain 3665 Macrolide-R [mef(A)], after serial passages in the drug): 16 µg/mL (≈ 21.4 µM) | MIC (S. pneumoniae [1]; read-out: Selected Resistance MIC, strain 7127 Macrolide-S [S20N in L4, A105V in L22], after serial passages in the drug): 0.5 µg/mL (≈ 0.668 µM) | days until resistant clones (MIC increase) (S. pneumoniae [1]; daily passages, min. 14, max. 50): 14 to 29 days | Retest MIC after 10 Antibiotic-free Subcultures (S. pneumoniae [1]; strain 24 Macrolide-R [erm(B)], clone selected with CEM-101): >64 µg/mL | Retest MIC after 10 Antibiotic-free Subcultures (S. pneumoniae [1]; strain 24 Macrolide-R [erm(B)], clone selected with TEL): >64 µg/mL | Retest MIC after 10 Antibiotic-free Subcultures (S. pneumoniae [1]; strain 1076 Macrolide-R [erm(B)&mef(A)], clone selected with CEM-101): >64 µg/mL | Retest MIC after 10 Antibiotic-free Subcultures (S. pneumoniae [1]; strain 1076 Macrolide-R [erm(B)&mef(A)], clone selected with TEL): >64 µg/mL | Retest MIC after 10 Antibiotic-free Subcultures (S. pneumoniae [1]; strain 1077 Macrolide-S, clone selected with AZI): >64 µg/mL | Retest MIC after 10 Antibiotic-free Subcultures (S. pneumoniae [1]; strain 1077 Macrolide-S, clone selected with CEM-101): 0.03 µg/mL | Retest MIC after 10 Antibiotic-free Subcultures (S. pneumoniae [1]; strain 1077 Macrolide-S, clone selected with CLN): >64 µg/mL | Retest MIC after 10 Antibiotic-free Subcultures (S. pneumoniae [1]; strain 1077 Macrolide-S, clone selected with TEL): >64 µg/mL | Retest MIC after 10 Antibiotic-free Subcultures (S. pneumoniae [1]; strain 1635 Macrolide-R [erm(A)], clone selected with AZI): >64 µg/mL | Retest MIC after 10 Antibiotic-free Subcultures (S. pneumoniae [1]; strain 1635 Macrolide-R [erm(A)], clone selected with CEM-101): 4 µg/mL | Retest MIC after 10 Antibiotic-free Subcultures (S. pneumoniae [1]; strain 1635 Macrolide-R [erm(A)], clone selected with CLN): 4 µg/mL | Retest MIC after 10 Antibiotic-free Subcultures (S. pneumoniae [1]; strain 1635 Macrolide-R [erm(A)], clone selected with CLR): >64 µg/mL | Retest MIC after 10 Antibiotic-free Subcultures (S. pneumoniae [1]; strain 2686 Macrolide-R [L4 mutation], clone selected with CEM-101): >64 µg/mL | Retest MIC after 10 Antibiotic-free Subcultures (S. pneumoniae [1]; strain 2686 Macrolide-R [L4 mutation], clone selected with CLR): >64 µg/mL | Retest MIC after 10 Antibiotic-free Subcultures (S. pneumoniae [1]; strain 2686 Macrolide-R [L4 mutation], clone selected with TEL): >64 µg/mL | Retest MIC after 10 Antibiotic-free Subcultures (S. pneumoniae [1]; strain 3009 Macrolide-R [23SrRNA mutation], clone selected with CEM-101): >64 µg/mL | Retest MIC after 10 Antibiotic-free Subcultures (S. pneumoniae [1]; strain 3009 Macrolide-R [23SrRNA mutation], clone selected with CLR): >64 µg/mL | Retest MIC after 10 Antibiotic-free Subcultures (S. pneumoniae [1]; strain 3665 Macrolide-R [mef(A)], clone selected with CEM-101): 16 µg/mL | Retest MIC after 10 Antibiotic-free Subcultures (S. pneumoniae [1]; strain 3665 Macrolide-R [mef(A)], clone selected with CLR): 8 µg/mL | Retest MIC after 10 Antibiotic-free Subcultures (S. pneumoniae [1]; strain 3665 Macrolide-R [mef(A)], clone selected with TEL): 4 µg/mL | Retest MIC after 10 Antibiotic-free Subcultures (S. pneumoniae [1]; strain 7127 Macrolide-S [S20N in L4, A105V in L22], clone selected with AZI): 1 µg/mL | Retest MIC after 10 Antibiotic-free Subcultures (S. pneumoniae [1]; strain 7127 Macrolide-S [S20N in L4, A105V in L22], clone selected with CEM-101): 0.06 µg/mL | Retest MIC after 10 Antibiotic-free Subcultures (S. pneumoniae [1]; strain 7127 Macrolide-S [S20N in L4, A105V in L22], clone selected with CLN): 0.03 µg/mL | Retest MIC after 10 Antibiotic-free Subcultures (S. pneumoniae [1]; strain 7127 Macrolide-S [S20N in L4, A105V in L22], clone selected with CLR): >64 µg/mL | Retest MIC after 10 Antibiotic-free Subcultures (S. pneumoniae [1]; strain 7127 Macrolide-S [S20N in L4, A105V in L22], clone selected with TEL): 0.06 µg/mL | single step mutation frequency (S. pneumoniae [2]; strain 1077 Macrolide-S, 2 × MIC): 7.2 × 10^−9 | single step mutation frequency (S. pneumoniae [2]; strain 1077 Macrolide-S, 4 × MIC): <1.9 × 10^−10 | single step mutation frequency (S. pneumoniae [2]; strain 1077 Macrolide-S, 8 × MIC): <1.9 × 10^−10 | single step mutation frequency (S. pneumoniae [2]; strain 1635 Macrolide-R [erm(A)], 2 × MIC): <2.0 × 10^−10 | single step mutation frequency (S. pneumoniae [2]; strain 1635 Macrolide-R [erm(A)], 4 × MIC): <2.0 × 10^−10 | single step mutation frequency (S. pneumoniae [2]; strain 1635 Macrolide-R [erm(A)], 8 × MIC): <2.0 × 10^−10 | single step mutation frequency (S. pneumoniae [2]; strain 7127 Macrolide-S [S20N in L4, A105V in L22], 2 × MIC): <2.0 × 10^−10 | single step mutation frequency (S. pneumoniae [2]; strain 7127 Macrolide-S [S20N in L4, A105V in L22], 4 × MIC): <2.0 × 10^−10 | single step mutation frequency (S. pneumoniae [2]; strain 7127 Macrolide-S [S20N in L4, A105V in L22], 8 × MIC): <2.0 × 10^−10 | single step mutation frequency (S. pyogenes; 2 × MIC): <1.0 × 10^−10 | single step mutation frequency (S. pyogenes; 4 × MIC): <1.0 × 10^−10 | single step mutation frequency (S. pyogenes; 8 × MIC): <1.0 × 10^−10 | ED50 (S. pyogenes 3029): > 150 mg/kg | MIC90 (S. pneumoniae [3]): > 16 µg/mL | MIC90 (M. catarrhalis): 0.06 µg/mL (≈ 0.0801 µM) | MIC50 (pneumococci): > 64 µg/mL | MIC90 (pneumococci): > 64 µg/mL | MIC50 (streptococci): 0.06 µg/mL (≈ 0.0801 µM) | MIC90 (streptococci): 0.12 µg/mL (≈ 0.16 µM) | MIC Range (streptococci): ≦0.008-0.5 μg/ml
